Results from PubChem BioAssay AID180 (DTP/NCI, 2004).
“And” between values parts separate entries of the source, which are not always exact repeats. Equal values may be shown once. Non-standard residues stand in square brackets, D forms with d. Residues, ends and D or L forms follow the SMILES beside them. ξ: configuration not given here. Ac5c = NC1(C(=O)O)CCCC1; ξS = NC(CO)C(=O)O

System: BDF1 mice, Adenocarcinoma 755 s.c., tumor weight T/C
Assay: NCI In Vivo Anticancer Drug Screen. Data for tumor model Adenocarcinoma 755 (subcutaneous) in B6D2F1 (BDF1) mice
Conditions: endpoint: mean tumor weight, schedule: Q01DX011 (ip), higher = larger tumour
Protocol: The antitumor activity of compounds was measured in mice bearing transplantable tumors. Survival or tumor size were measured and the results are expressed as the measurement made in the treated group (T) divided by the measurement made in the vehicle treated control group (C). The tumor model used in this assay is Adenocarcinoma 755 (subcutaneous) in B6D2F1 (BDF1) mice

[1] = dose: 50.0 mg/kg/injection, vehicle: carboxymethylcellulose (CMC)
[2] = dose: 100.0 mg/kg/injection, vehicle: carboxymethylcellulose (CMC)
[3] = dose: 200.0 mg/kg/injection, vehicle: carboxymethylcellulose (CMC)
[4] = dose: 400.0 mg/kg/injection, vehicle: carboxymethylcellulose (CMC)
[5] = dose: 75.0 mg/kg/injection, vehicle: methylcellulose (MC)
[6] = dose: 150.0 mg/kg/injection, vehicle: methylcellulose (MC)
[7] = dose: 25.0 mg/kg/injection, vehicle: carboxymethylcellulose (CMC)
[8] = dose: 15.0 mg/kg/injection, vehicle: methylcellulose (MC)
[9] = dose: 62.0 mg/kg/injection, vehicle: methylcellulose (MC)
[10] = dose: 125.0 mg/kg/injection, vehicle: methylcellulose (MC)
[11] = dose: 31.0 mg/kg/injection, vehicle: methylcellulose (MC)

`Oc1ccc2ccccc2c1N=Nc1ccc(Cl)cc1` was tested, and the T/C (dose: 3.1 mg/kg/injection, vehicle: other) was 15 % of control, the T/C (dose: 6.25 mg/kg/injection, vehicle: other) was 108 % of control and the T/C (dose: 12.5 mg/kg/injection, vehicle: other) was 91 % of control and 84 % of control. For the same compound, the T/C (dose: 25.0 mg/kg/injection, vehicle: other) was 56 % of control and 62 % of control, the T/C [1] was 50 % of control and the T/C [2] was 40 % of control. For the same compound, the T/C (dose: 100.0 mg/kg/injection, vehicle: other) was 24 % of control and 49 % of control, the T/C (dose: 100.0 mg/kg/injection, vehicle: saline) was 81 % of control and the T/C [3] was 34 % of control. For the same compound, the T/C (dose: 200.0 mg/kg/injection, vehicle: other) was 25 % of control, the T/C (dose: 200.0 mg/kg/injection, vehicle: saline) was 38 % of control and the T/C [4] was 36 % of control. For the same compound, the T/C (dose: 400.0 mg/kg/injection, vehicle: other) was 14 % of control and 24 % of control, the T/C (dose: 400.0 mg/kg/injection, vehicle: saline) was 28 % of control and the T/C (dose: 800.0 mg/kg/injection, vehicle: carboxymethylcellulose (CMC)) was 16 % of control. The T/C (dose: 800.0 mg/kg/injection, vehicle: other) was 6 % of control and the T/C (dose: 1200.0 mg/kg/injection, vehicle: other) was 9 % of control.

With `Nc1nc(SCC(=O)c2ccc(Cl)cc2)c2ncn(C3OC(CO)C(O)C3O)c2n1` (configuration not stated) the T/C (dose: 37.5 mg/kg/injection, vehicle: methylcellulose (MC)) was 62 % of control, the T/C [5] was 44 % of control and the T/C [6] was 31 % of control. For the same compound, the T/C (dose: 300.0 mg/kg/injection, vehicle: methylcellulose (MC)) was 24 % of control.

For `O=C(O)/C=C\C(=O)Nc1nccs1`, the T/C [7] was 80 % of control.

For `CCc1c(Cl)nc(N)nc1Nc1ccccc1Cl`, the T/C [8] was 105 % of control, the T/C [9] was 103 % of control and the T/C [10] was 101 % of control.

For `c1nc(SCCSc2ncnc3nc[nH]c23)c2[nH]cnc2n1`, the T/C (dose: 4.6 mg/kg/injection, vehicle: methylcellulose (MC)) was 93 % of control, the T/C (dose: 9.3 mg/kg/injection, vehicle: methylcellulose (MC)) was 86 % of control and the T/C (dose: 18.7 mg/kg/injection, vehicle: methylcellulose (MC)) was 74 % of control. For the same compound, the T/C [5] was 1 % of control and the T/C [6] was 2 % of control.

For `O=C1C(Cl)=C(Cl)C(=O)C2=C1C1c3ccccc3C2c2ccccc21`, the T/C (dose: 37.0 mg/kg/injection, vehicle: carboxymethylcellulose (CMC)) was 83 % of control, the T/C (dose: 37.5 mg/kg/injection, vehicle: carboxymethylcellulose (CMC)) was 117 % of control and the T/C (dose: 75.0 mg/kg/injection, vehicle: carboxymethylcellulose (CMC)) was 113 % of control and 114 % of control. The T/C (dose: 150.0 mg/kg/injection, vehicle: carboxymethylcellulose (CMC)) was 89 % of control and 84 % of control, the T/C (dose: 300.0 mg/kg/injection, vehicle: carboxymethylcellulose (CMC)) was 83 % of control and the T/C (dose: 325.0 mg/kg/injection, vehicle: carboxymethylcellulose (CMC)) was 41 % of control. The T/C [4] was 33 % of control and the T/C (dose: 600.0 mg/kg/injection, vehicle: carboxymethylcellulose (CMC)) was 15 % of control.

With `NC(CO)C(=O)NC1(C(=O)O)CCCC1` (configuration not stated) (H-[ξS]-[Ac5c]-OH) the T/C (dose: 45.0 mg/kg/injection, vehicle: carboxymethylcellulose (CMC)) was 62 % of control, the T/C (dose: 90.0 mg/kg/injection, vehicle: carboxymethylcellulose (CMC)) was 12 % of control and the T/C (dose: 180.0 mg/kg/injection, vehicle: carboxymethylcellulose (CMC)) was 5 % of control.

`O=c1[nH]cc(Br)c(=S)[nH]1` was tested, and the T/C [8] was 64 % of control, the T/C [11] was 86 % of control and the T/C [9] was 80 % of control. For the same compound, the T/C [10] was 119 % of control and the T/C (dose: 250.0 mg/kg/injection, vehicle: methylcellulose (MC)) was 109 % of control.

In the case of `CC1(C)OC2C(CO)OC(n3cnc4c(SCc5ccccc5)ncnc43)C2O1` (configuration not stated), the T/C [11] is reported as 79 % of control, the T/C [9] is reported as 59 % of control and the T/C [10] is reported as 50 % of control.

In the case of `O=C(NP(=O)(N1CC1)N1CC1)OCc1ccccc1`, the T/C (dose: 0.38 mg/kg/injection, vehicle: saline) is reported as 68 % of control, the T/C (dose: 0.75 mg/kg/injection, vehicle: saline) is reported as 35 % of control and the T/C (dose: 1.5 mg/kg/injection, vehicle: saline) is reported as 53 % of control. For the same compound, the T/C (dose: 2.25 mg/kg/injection, vehicle: other) was 74 % of control, the T/C (dose: 2.25 mg/kg/injection, vehicle: saline) was 115 % of control and the T/C (dose: 3.0 mg/kg/injection, vehicle: saline) was 18 % of control and 35 % of control. For the same compound, the T/C (dose: 4.5 mg/kg/injection, vehicle: other) was 83 % of control, the T/C (dose: 4.5 mg/kg/injection, vehicle: saline) was 98 % of control and the T/C (dose: 6.0 mg/kg/injection, vehicle: saline) was 18 % of control. The T/C (dose: 9.0 mg/kg/injection, vehicle: other) was 52 % of control, the T/C (dose: 9.0 mg/kg/injection, vehicle: saline) was 56 % of control and the T/C (dose: 12.0 mg/kg/injection, vehicle: saline) was 2 % of control. For the same compound, the T/C (dose: 18.0 mg/kg/injection, vehicle: other) was 12 % of control, the T/C (dose: 18.0 mg/kg/injection, vehicle: saline) was 29 % of control and the T/C (dose: 24.0 mg/kg/injection, vehicle: saline) was 1 % of control.

With `CCCNc1ncnc2c1cnn2C` the T/C (dose: 3.12 mg/kg/injection, vehicle: methylcellulose (MC)) was 84 % of control, the T/C (dose: 3.12 mg/kg/injection, vehicle: saline) was 101 % of control and the T/C (dose: 6.25 mg/kg/injection, vehicle: methylcellulose (MC)) was 80 % of control. For the same compound, the T/C (dose: 6.25 mg/kg/injection, vehicle: saline) was 86 % of control, the T/C (dose: 12.5 mg/kg/injection, vehicle: methylcellulose (MC)) was 32 % of control and the T/C (dose: 12.5 mg/kg/injection, vehicle: saline) was 19 % of control. The T/C (dose: 25.0 mg/kg/injection, vehicle: saline) was 8 % of control.

For `CC(CNC(=O)CCOS(C)(=O)=O)CNC(=O)CCOS(C)(=O)=O`, the T/C (dose: 6.25 mg/kg/injection, vehicle: carboxymethylcellulose (CMC)) was 120 % of control, the T/C (dose: 12.5 mg/kg/injection, vehicle: carboxymethylcellulose (CMC)) was 92 % of control and the T/C (dose: 14.0 mg/kg/injection, vehicle: carboxymethylcellulose (CMC)) was 73 % of control. For the same compound, the T/C [7] was 111 % of control, the T/C (dose: 28.0 mg/kg/injection, vehicle: carboxymethylcellulose (CMC)) was 108 % of control and the T/C [1] was 39 % of control. The T/C (dose: 57.0 mg/kg/injection, vehicle: carboxymethylcellulose (CMC)) was 72 % of control, the T/C [2] was 15 % of control and the T/C (dose: 113.0 mg/kg/injection, vehicle: carboxymethylcellulose (CMC)) was 20 % of control and 36 % of control. The T/C [3] was 2 % of control and the T/C (dose: 225.0 mg/kg/injection, vehicle: carboxymethylcellulose (CMC)) was 4 % of control.

With `Nc1nc(SCc2ccncc2)c2[nH]cnc2n1` the T/C (dose: 1.25 mg/kg/injection, vehicle: methylcellulose (MC)) was 71 % of control, the T/C (dose: 2.5 mg/kg/injection, vehicle: methylcellulose (MC)) was 41 % of control and the T/C (dose: 5.0 mg/kg/injection, vehicle: methylcellulose (MC)) was 31 % of control. For the same compound, the T/C (dose: 10.0 mg/kg/injection, vehicle: methylcellulose (MC)) was 9 % of control and 12 % of control and the T/C (dose: 20.0 mg/kg/injection, vehicle: methylcellulose (MC)) was 3 % of control.
